Assay results published in US8501715B2, “Oxidized lipids and uses thereof in the treatment of inflammatory diseases and disorders” (Vascular Biogenics Ltd., priority 2003, dated 2013).

Columns and labels:
[1] = tested on: Apo-E KO mice; test: Aorta lesion (% from total area); assay type: in vivo; details: oral 1 mg/mouse, 5 feedings every other day every 4 weeks over 12 weeks; 24.5 week old mice; End
Text: Assessment of Atherosclerosis: Quantification of atherosclerotic fatty streak lesions was done by calculating the lesion size in the aortic sinus as previously described (Paigen et al. Quantitative assessment of atherosclerotic lesions in mice. Atherosclerosis 1987; 68: […]) and by calculating the lesion size in the aorta. Briefly, after perfusion with saline Tris EDTA, the heart and the aorta were removed from the animals and the peripheral fat cleaned carefully. The upper section of the heart was embedded in OCT medium (10.24% w/w polyvinyl alcohol; 4.26% w/w polyethylene glycol; 85.50 w/w nonreactive ingredients) and frozen. […] Sections were evaluated for fatty streak lesions after staining with oil-red O. Lesion areas per section were scored on a grid (Rubin et al. Inhibition of early atherogenesis in transgenic mice by human apoplipoprotein A-I. Nature 1991; 353: 265-267) by an observer counting unidentified, numbered specimens. […]
Their effect on the triglyceride and cholesterol fractions of VLDL was also monitored by FPLC. […]
(§1) Mice were bled prior to feeding (Time 0), after the 2nd set of feeding and at the conclusion of the experiment (End) for determination of lipid profile, lipid fractionation and plasma collection. Atherosclerosis was assessed as described above in the aorta sinus and aorta. […] Weight was recorded every 2 weeks throughout the experiment. […]

[2] = FPLC analysis of triglyceride and cholesterol content of VLDL; assay type: in vivo; details: oral 1 mg/mouse, 3 sets over 12 weeks; measured 9 weeks from t=0; FPLC of pooled blood
Experimental: 24.5 weeks old Apo-E KO mice were fed 1 mg/mouse L-ALLE (triangle) (n=11), D-ALLE (inverted triangle) (n=9) or POVPC (square) (n=10) every other day for 5 days, at 4 weeks intervals over a 12 weeks period. Control mice were fed an identical volume (0.2 ml) and regimen of PBS (circle) (n=10). Triglyceride content (Tg, mg/ml) was measured 9 weeks from t=0, by enzymatic colorimetric method in the VLDL fractions following separation of pooled blood samples on FPLC, as described in the materials and methods section that follows.
24.5 weeks old Apo-E KO mice were fed 1 mg/mouse L-ALLE (triangle) (n=11), D-ALLE (inverted triangle) (n=9) or POVPC (square) (n=10) every other day for 5 days, at 4 weeks intervals over a 12 weeks period. Control mice were fed an identical volume (0.2 ml) and regimen of PBS (circle) (n=10). Cholesterol content (Cholesterol, mg/ml) was measured 9 weeks from t=0, by enzymatic colorimetric method in the VLDL fractions following separation of pooled blood samples on FPLC, as described in the materials and methods section that follows.
FPLC Analysis: Fast Protein Liquid Chromatography analysis of cholesterol and lipid content of lipoproteins was performed using Superose 6 HR 10/30 column (Amersham Pharmacia Biotech, Inc, Peapack, N.J.) on a FPLC system (Pharmacia LKB. FRAC-200, Pharmacia, Peapack, N.J.). A minimum sample volume of 300 μl (blood pooled from 3 mice was diluted 1:2 and filtered before loading) was required in the sampling vial for the automatic sampler to completely fill the 200 μl sample loop. Fractions 10-40 were collected, each fraction contained 0.5 ml. A 250 μl sample from each fraction was mixed with freshly prepared cholesterol reagent or triglyceride reagent respectively, incubated for 5 minutes at 37° C. and assayed spectrophotometrically at 500 nm.
Their effect on the triglyceride and cholesterol fractions of VLDL was also monitored by FPLC. […] male, 24.5 week old Apo-E KO mice were divided into 5 groups. In group A (n=11) mice were fed with 1 mg/mouse L-ALLE suspended in 0.2 ml PBS, administered by gavage, as described above, every other day for 5 days. In group B (n=9) mice were fed with 1 mg/mouse D-ALLE suspended in 0.2 ml PBS, administered per os, as described above, every other day for 5 days. In group C (n=10) mice were fed with 1 mg/mouse POVPC suspended in 0.2 ml PBS, administered by gavage, as described above, every other day for 5 days. […]
as §1

[3] = tested on: Apo-E KO mice; test: Assessment of atherosclerosis: lesion area in the aortic sinus; assay type: in vivo, mouse; details: oral 1 mg/mouse
[4] = tested on: T-cells from inguinal lymph node; test: Proliferation assay (stimulation index) of lymph node cells exposed to Human ox-LDL; assay type: in vivo; details: oral 1 mg/mouse every other day for 5 days
Experimental: 6 week old male Apo-E KO mice were fed either 1 mg/mouse L-ALLE (L-ALLE) (n=2) or POVPC (POVPC) (n=3) in 0.2 ml PBS; or PBS alone (CONTROL) (n=3) every other day for 5 days. One week following the last feeding the mice were immunized with a single subcutaneous injection of 50 μg Human oxidized LDL antigen. 7 days later T-cells from inguinal lymph node were prepared as described in Materials and Methods section that follows, and exposed to the sensitizing Human ox-LDL antigen for in-vitro assessment of proliferation. Proliferation, indicating immune reactivity, is expressed as the ratio between incorporation of labeled thymidine into the T-cell's DNA in the presence and absence of human ox-LDL antigen (stimulation index, S.I.).
II. […]
Proliferation was assayed eight days after immunization with the oxidized LDL as follows: Spleens or lymph nodes were prepared by meshing the tissues on 100 mesh screens. […] Incomplete medium was added (10 ml), cells were centrifuge for 7 minutes at 1,700 rpm, resuspended in RPMI medium and counted in a haemocytometer at 1:20 dilution (10 μl cells+190 μl Trypan Blue). Proliferation was measured by the incorporation of [^3H]-Thymidine into DNA in triplicate samples of 100 μl of the packed cells (2.5×10^6 cells/ml) in a 96 well microtiter plate. […]

[5] = tested on: apoE(−/−) mice; details: administration of alpha-galactosylceramide; Tupin et al.; cited from earlier work
[6] = tested on: apoE(−/−)CD1d(−/−) mice; details: administration of alpha-galactosylceramide; Tupin et al.; cited from earlier work

CCCCCCCCCCCCCCCCOC[C@@H](COP(=O)([O-])OCC[N+](C)(C)C)OCCCCC=O [L-ALLE, 3-hexadecyl-2-(5′-oxo-pentanyl)-sn-glycero-1-phosphocholine]
Aorta lesion (% from total area) [1]: 5.4 % from total area
cholesterol content of VLDL [2]: reduction
triglyceride content of VLDL [2]: reduction
Sinus Lesion ([3]; 5 feedings every other day every 4 weeks over 12 weeks, 24.5 week old mice, End (12 weeks after first feeding)): 233056 ± 12746 μm^2
protection from atheromatous progression ([3]; late stage, compared with lesion scores at 24.5 weeks): nearly complete protection
change of Stimulation Index versus PBS ([4]; then immunization with Human oxidized LDL): −78%
Stimulation Index (SI) ([4]; then s.c. immunization with Human oxidized LDL, lymph nodes one week later): 7.3 ± 2.3

CCCCCCCCCCCCCCCCCCCCCCCCCC(=O)N[C@@H](CO[C@H]1O[C@H](CO)[C@H](O)[C@H](O)[C@H]1O)[C@H](O)[C@H](O)CCCCCCCCCCCCCC [alpha-galactosylceramide]
increase in lesion size [5]: 50%
Lesion size [6]: did not affect lesion size
